# Source: US6710055B2, “Disubstituted bicyclic heterocycles, the preparation thereof, and their use as pharmaceutical compositions” (Boehringer Ingelheim Pharma GmbH & Co., KG, priority 1997, dated 2004)
# Where two headings read alike, the source gives them in different places.
# Experiments:
# [1] = biological target: T1, Test thrombin (bovine) (Bos taurus, UniProt P00735); test: Thrombin time in human citrated plasma (Biomatic B10 coagulometer); type: biochemical
# T1 construct: purchased Behring Werke, Marburg
# Description: were investigated as follows for their effects on thrombin time:
# Materials: plasma, from human citrated blood.
# Test thrombin (bovine), 30U/mL, Behring Werke, Marburg
# Diethylbarbiturate acetate buffer, ORWH 60/61, Behring Werke, Marburg
# Biomatic B10 coagulometer, Sarstedt
# The thrombin time was determined using a Biomatic B10 coagulometer made by Messrs. Sarstedt. As the test substance, 0.1 mL of human citrated plasma and 0.1 mL diethylbarbiturate buffer (DBA buffer) were added to the test strip prescribed by the manufacturer. The mixture was incubated for one minute at 37° C. The clotting reaction was started by the addition of 0.3 U test thrombin in 0.1 mL DBA buffer. The time is measured using the apparatus from the addition of the thrombin up to the clotting of the mixture. Mixtures to which 0.1 mL of DBA buffer were added were used as the controls.
# [2] = tested on: thrombocyte aggregation; test: Inhibitory effect on thrombocyte aggregation; type: cell-based
# [3] = tested on: rats; conditions: doses of up to 10 mg/kg i.v.
# [4] = concentration at which the thrombin time is double compared with the control, human citrated plasma, 0.3 U test thrombin (bovine), 37° C.
Compound,"Thrombin time (ED200 in μM) [1, 4]",also measured
"N=C(N)c1ccc(NCc2nc3cc(C(=O)N(CCC(=O)O)c4ccccc4)ccc3s2)cc1 [A, 2-[N-(4-amidinophenyl)aminomethyl]benzthiazole-5-carboxylic acid-N-phenyl-N-(2-carboxyethyl)amide]",0.04 µM,
"Cn1c(CCc2ccc(C(=N)N)cc2)nc2cc(C(=O)N(CCCC(=O)O)c3ccccc3)ccc21 [B, 1-methyl-2-[2-(4-amidinophenyl)ethyl]benzimidazol-5-yl-carboxylic acid-N-phenyl-N-(3-hydroxycarbonylpropyl)amide]",0.06 µM,
"Cn1c(COc2ccc(C(=N)N)cc2)nc2cc(C(=O)N(CC(=O)O)c3ccccc3)ccc21 [C, 1-methyl-2-[(4-amidinophenyl)oxymethyl]benzimidazol-5-yl-carboxylic acid-N-phenyl-N-(hydroxycarbonylmethyl)amide]",0.15 µM,
"CN(Cc1nc2cc(C(=O)N(CCC(=O)O)c3ccccc3)ccc2s1)c1ccc(C(=N)N)cc1.Cl [Example 16, 2-[N-(4-amidinophenyl)-N-methylaminomethyl]benzothiazol-5-yl-carboxyiic acid-N-phenyl-N-(2-hydroxycarbonylethyl)amide hydrochloride]",,inhibitory effect on thrombocyte aggregation [2]: slight inhibitory effect
"Cn1c(CCc2ccc(C(=N)N)cc2)nc2cc(C(=O)N(CCc3nnn[nH]3)c3ccccc3)ccc21 [F, 1-methyl-2-[2-(4-amidinophenyl)ethyl]benzimidazol-5-yl-carboxylic acid-N-phenyl-N-[2-(1H-tetrazol-5-yl)ethyl]amide]",0.03 µM,
CCOC(=O)CCN(c1ccccc1)S(=O)(=O)c1ccc2c(c1)nc(CNc1ccc(C(=N)N)cc1)n2C.Cl,,melting point: 188 to 191 °C
"Cn1c(CNc2ccc(C(=N)N)cc2)nc2cc(C(=O)N(CCC(=O)O)c3ccccc3)ccc21 [D, 1-methyl-2-[N-(4-amidinophenyl)aminomethyl]benzimidazol-5-yl-carboxylic acid-N-phenyl-N-(2-hydroxycarbonylethyl)amide]",,Thrombin time (ED200 in μM) [1]: 0.03 µM
"Cn1c(CNc2ccc(C(=N)N)cc2)nc2cc(C(=O)N(CC(=O)O)c3ccccn3)ccc21 [E, 1-methyl-2-[N-(4-amidinophenyl)aminomethyl]benzimidazol-5-yl-carboxylic acid-N-(2-pyridyl)-N-(hydroxycarbonylmethyl)amide]",0.09 µM,
"[H]/N=C(/N)c1ccc(NCc2nc3cc(C(=O)N(CCC(=O)O)c4ccccn4)ccc3n2C)cc1 [G, 1-methyl-2-[N-(4-amidinophenyl)aminomethyl]benzimidazol-5-yl-carboxylic acid-N-(2-pyridyl)-N-(2-hydroxycarbonylethyl)amide]",,Thrombin time (ED200 in μM) [1]: 0.03 µM; acute toxic side effects [3]: no acute toxic side effects were observed
